From PubChem BioAssay AID493102 (Broad Institute, 2011)

What follows are compounds tested on SK-MEL-5 TRPM1-promoter luciferase reporter, 24 h (assay: TRPM1 promoter luciferase signal decrease, dose response, MITF inhibitor project, cell-based, SK-MEL-5, cherry-picked, set 4 (AID 493102);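 further: actives lower the luciferase signal so the potency reflects inhibition of reporter expression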).

SMILES	AC50 [µM]
O=[N+]([O-])/C=C\c1ccc(N2CCOCC2)cc1	13.6
O=C(/C=C/c1ccc(Cl)c([N+](=O)[O-])c1)c1ccc(O)cc1	17.4
COc1ccc(Cn2c(-c3ccc(C)cc3)c[n+]3ccccc23)cc1	2.89
COc1ccc(C(CCNC(C)c2ccccc2)c2ccc(F)cc2)cc1 (stereo unspecified)	16.6
CN(C)c1nc(-c2ccccn2)nnc1-c1ccccc1	6.17
Cc1ccccc1C(=O)N1CCN(c2ccc(NC(=O)c3ccc([N+](=O)[O-])o3)cc2)CC1	6.2
COc1ccc(C(=O)/C=C/C(=O)N(CC(=O)NC2CCCCC2)Cc2ccccc2OC)c(O)c1	4.04
COc1ccccc1OCC(=O)N/N=C/C=C/c1ccc([N+](=O)[O-])o1	7.39
COc1ccc(O)c(/C=N/NC(=O)c2ccc(CSc3nc(C)cc(C)n3)cc2)c1	9.31
Cc1[nH]n(-c2ccccc2)c(=O)c1N=Nc1cccc(C(=O)O)c1	8.07
CCSc1ccccc1C(=O)n1nnc2ccccc21	11.8
Cc1ccc(C2=NN(C(=O)CCl)C(c3cccs3)C2)o1 (stereo unspecified)	6.1
Cn1nnnc1Sc1ncnc2scc(-c3ccc[nH]3)c12	7.32
O=C(CNc1ccc2ccccc2c1)N/N=C/c1ccc([N+](=O)[O-])o1	4.95
COc1cnc(-c2ccccn2)nc1NC(C)C	12.4
Cc1ccccc1-n1ncc2c([N+](=O)[O-])cc([N+](=O)[O-])cc21	8.7
CCOc1ccc(-c2cc(C)[n+](CCO)c(-c3ccc(OCC)cc3)c2)cc1	11.1
CCN(CC)c1ccc(/C=N/NC(=O)c2cccc(S(=O)(=O)N3CCOCC3)c2)c(O)c1	1.52
Cc1ccc(C(=O)N/C(=C\c2ccc(-c3ccccc3[N+](=O)[O-])o2)C(=O)NCCN(C)C)cc1	4.87
Cc1cccc(NC2=C(NC(=O)c3ccccc3)C(=O)c3ccccc3C2=O)c1	9.99
CC1CCC(C(C)C)C(OC(=O)Cn2c(-c3ccc(Cl)cc3)[n+](C)c3ccccc32)C1 (stereo unspecified)	6.29

SMILES	AC50 [µM]
CCN(CC)CCNC(=O)c1c(C)n(-c2ccccc2)c2cc(Br)c(OC)cc12	12.9
COC(=O)c1ccc(Nc2cc(C)nc3ccc(C)cc23)cc1	6.85
CC1CN(N=Cc2ccc([N+](=O)[O-])o2)C(=N)O1 (stereo unspecified)	24.1
OCCNc1c2ccccc2nc2ccccc12	7.28
Nc1ccc2c(c1)OC1(CCCC1)O2	11.2
O=C(NC1CCCCC1)C(c1cccnc1)N(C(=O)CCl)c1cccc(Cl)c1 (stereo unspecified)	4.16
O=C(N/N=C/c1cc(Br)ccc1O)c1ccncc1	9.36
Cc1ccc(NC(=O)CCC(=O)N/N=C/c2ccc([N+](=O)[O-])o2)cc1C	6.25
Cc1cc(NCCCn2ccnc2)n2ncc(-c3ccccc3)c2n1	11
COc1ccc(C(=O)C(CN2CCCC2)c2ccccc2)cc1 (stereo unspecified)	9.13
O=C(N/N=C/c1ccccn1)c1cc([N+](=O)[O-])cc([N+](=O)[O-])c1	6.53
CCN1CCCC1CNC(=O)c1ccc2c(c1)NC(=O)/C(=C\c1ccc(C)cc1)S2 (stereo unspecified)	18.9
COc1cc2c(cc1OC)C(c1ccccc1)N(C(=O)CCl)CC2 (stereo unspecified)	5.36
O=C(Nc1ccc(Cl)c(S(=O)(=O)N2CCOCC2)c1)c1ccc(OCC2CCCO2)cc1 (stereo unspecified)	3.26
O=C1Nc2ccc(Br)cc2/C1=C/C(=O)c1ccc2c(c1)OCO2	25.5
COc1ccc(-n2cc(-c3ccc(C)cc3)[n+]3c2SCC3)cc1	2.91
COc1ccc(N(C(=O)CCl)C(C(=O)NC2CCCCC2)c2cccnc2)cc1 (stereo unspecified)	5.87
O=C(N/N=C/c1ccc([N+](=O)[O-])s1)c1ccccc1	2.29
COc1ccc(-c2cc(-c3ccccc3)c(C#N)c(S(C)=O)n2)cc1 (stereo unspecified)	11.8
CCN1/C(=C/c2cc[n+](C)cc2)C=Cc2cc(C)ccc21	1.74
CC1CC(C)C[N+](=C2C=C(N3CCCC3)CC(C)(C)C2)C1 (stereo unspecified)	2.24

SMILES	AC50 [µM]
CCOc1cc(/C=C(/C#N)c2ccc(Cl)cc2)cc(Cl)c1OCC(=O)O	5.61
Cc1ccc(-n2cc(CNCCCn3ccnc3C)c(-c3ccc(F)cc3)n2)cc1	7.58
CC(=O)N1CCc2c(sc(NC(=O)c3ccc([N+](=O)[O-])o3)c2C#N)C1	2.22
CCOC(=O)c1ccc2c(c1)n(CC)c(/C=C/N(C)c1ccccc1)[n+]2CC	3.24
CC(Oc1cccc(Br)c1)C(=O)NNC(=O)c1ccccn1 (stereo unspecified)	7.18
CCN1CCN(c2ccc(S(=O)(=O)N3CCCCC3)cc2NC(=O)/C=C/c2ccc([N+](=O)[O-])cc2)CC1	7.51
Cc1c(C#N)c(NC(=O)CCl)n(Cc2ccccc2)c1C	11.2
CN1CCN(C2=C(NS(=O)(=O)c3cccs3)C(=O)c3ccccc3C2=O)CC1	6.98
CCn1c(/C=C/Nc2ccccc2)[n+](CC)c2cc(Cl)c(Cl)cc21	14.5
O=[N+]([O-])c1cc(CN2CCN(c3ccccc3)CC2)c(O)c2ncccc12	8.3
CS(=O)(=O)c1ccc(C(=O)OCC(=O)NCc2cccs2)cc1[N+](=O)[O-]	11.7
O=S(=O)(CC(CN1CCCCC1)N1CCCCC1)c1ccc2ccccc2c1 (stereo unspecified)	12.5
COc1ccccc1NS(=O)(=O)c1cc(NC(=O)c2ccc(Cl)nc2)ccc1Cl	11.3
O=C(N/N=C/c1cc([N+](=O)[O-])ccc1N1CCNCC1)c1ccc([N+](=O)[O-])cc1	8.19
Cn1nnnc1Sc1ncnc2scc(-c3ccsc3)c12	7.95
O=C(O)CSCC(=O)Nc1ccc(C2CCCCC2)cc1	2.12
CCSC1(SCC)N=C(N)C2(C#N)C(c3ccc(F)cc3)C12C#N (stereo unspecified)	14
COc1ccccc1C(=O)Nc1nc(-c2ccc(S(=O)(=O)N3CCOCC3)cc2)cs1	4.34
CC(/C=C1\SC(=O)N(CCCC(=O)O)C1=O)=C\c1ccccc1	2.36
N#C/C(=C(/O)CCl)c1nc2ccccc2[nH]1	4.6
Clc1cccc(-c2nc(-c3ccccn3)no2)c1	5.92

SMILES	AC50 [µM]
CCc1ccc(-c2cc(C(=O)Nn3cnnc3)c3ccccc3n2)cc1	12.5
COc1ccc(-c2cc3c(nn2)-c2ccccc2C3=O)cc1	4.22
COCCn1c(C)cc(C(=O)COC(=O)c2ccccc2Br)c1C	1.14
O=C(COC(=O)c1ccccc1C(=O)c1ccc(Cl)c([N+](=O)[O-])c1)NC1CC1	8.92
Cc1nc2ccccn2c1C(=O)N/N=C/c1ccc([N+](=O)[O-])o1	8.03
Cc1ccc(C#CC[N+]2(CC#Cc3ccc(C)cc3)CCCCC2)cc1	3.95
COc1ccc(C(=O)C(CN2CCOCC2)c2ccccc2)cc1 (stereo unspecified)	7.29
N#C/C(=C(/O)c1ccc([N+](=O)[O-])o1)c1nc2ccccc2[nH]1	3.8
COC(=O)C1=C(C)N(Cc2ccccc2)C(=NCc2ccccc2)N[C@H]1c1ccccc1	18
COc1ccccc1NC(=O)c1nc(S(=O)(=O)Cc2ccccc2)ncc1Cl	8.91
CCN1CCN(/C=N/c2nc3c(s2)CCCC3)CC1	6.42
COc1cccc2sc(N3CCN(C(=O)c4ccc([N+](=O)[O-])o4)CC3)nc12	7.03
Oc1cc(NCCN2CCOCC2)cc2cccnc12	25.9
COc1cc2nc(SCC(=O)NCc3ccco3)n(Cc3ccc(Cl)cc3)c(=O)c2cc1OC	13.2
CC(C)CC(=O)/C=C/n1c(=S)oc2ccccc21	10.5
O=C(O)c1ccc(Nc2nc3c(s2)CCCC3)cc1	6.49
COc1ccc(C(=O)/C=C/C(=O)N(CC(=O)NC2CCCCC2)Cc2ccccc2)c(O)c1	5.24
Cc1nc2ccccc2n1/N=C/c1ccc([N+](=O)[O-])s1	3.51
